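96-well plates; 48 h exposure; 5 concentrations. Endpoints by linear interpolation between flanking doses. Not reached: highest tested concentration assigned. The concentration for 50% growth inhibition is given as GI50. TGI is the concentration that stops growth completely.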

Holding throughout (assay): NCI-60 cell line screen, 48 h
For assay [1], the system named is RXF 393 renal.
Assay [2] deals with HS 578T breast.
The subject of assay [3] is PC-3 prostate.
For assay [4], the system named is MDA-MB-231 breast.
In assay [5] the test system is BT-549 breast.
The test system of assay [6] is SW-620 colon.
Assay [7] concerns A549 NSCLC.
Assay [8] relates to MCF7 breast.
Assay [9] has as its system UO-31 renal.
The test system of assay [10] is SF-295 CNS.

Take `CC12OC(C(=O)C13CCC3)C1C(=O)c3c(O)ccc(O)c3C(=O)C12` (stereo not drawn): the GI50 is 1.41 µM in [1]; 4.38 µM in [2]; 2.72 µM in [3]; 2.41 µM in assay [4]; 5.97 µM in [5]; 1.39 µM in [6]. Besides, the GI50 in assay [7] was 5.79 µM; in assay [8], 1.49 µM; in assay [9], 2.82 µM. The TGI stood at 3.3 µM in [1]; 17.6 µM in assay [2]; 9.09 µM in assay [3]; 7.47 µM in assay [4]; 16.4 µM in assay [5]; 3.88 µM in assay [6]. In addition, the TGI in assay [7] came out at 22.3 µM; in [8], 6.2 µM; in assay [9], 9.06 µM; in assay [10], 10.3 µM.

In the case of `Nc1csc(-c2scc3c2OCCO3)c1N`, the TGI in [1] is 56.1 µM; in assay [2], above 100 µM; in assay [3], 62.5 µM; in [4] it was 41.4 µM; in assay [5] it was 50.2 µM; in assay [6], 87.9 µM. In addition, the TGI was above 100 µM in [7], 33.4 µM in [8], 33.4 µM in [9] and 38.3 µM in assay [10].

For `COc1cc(/C=C2\CC3C4CC[C@H]5C[C@@H](O)CC[C@]5(C)C4CC[C@]3(C)\C2=N\O)cc(OC)c1OC` (stereo partly drawn), the TGI in assay [1] was 36.8 µM; in assay [2], 75.7 µM; in assay [3] it was 55.1 µM; in assay [4] it was 59.7 µM; in assay [5], 42.1 µM; in [6], above 100 µM. Also, the TGI in assay [7] is above 100 µM; in [8] it was 26.8 µM; in assay [9], 17.4 µM; in assay [10] it was 15.4 µM.

For `C=C(CN(C)C)C(=O)c1ccccc1Cl`, the TGI in [1] is 29.6 µM; in assay [6], 27.7 µM; in assay [7] it was above 100 µM; in assay [9], 33.6 µM; in assay [10] it was above 100 µM.

With `CN(CCCN1CCCC1)CCCN(C)C(=O)Cc1ccc(Cl)c(Cl)c1`, the TGI in assay [1] was 31.9 µM; in assay [2], 36 µM; in assay [3] it was above 74.4 µM; in assay [4], 31.9 µM; in assay [5], 46.2 µM; in [6], 50.7 µM. Moreover, the TGI in assay [7] was above 53.6 µM; in [8] it was 31.6 µM; in [9], 9.64 µM; in assay [10], 36.2 µM.

For `CC(NC(=O)c1ccc(OP(=O)(OCc2ccc([N+](=O)[O-])o2)N(C)CCCCCl)cc1)c1ccc(OCC2CCCCC2)c(C(N)=O)c1` (stereo not drawn), the TGI is 9.25 µM in assay [1]; above 41.6 µM in assay [2]; 49.1 µM in [3]; 9.66 µM in assay [4]; 5.94 µM in assay [5]; above 43.1 µM in assay [6]. The TGI in assay [7] is above 21.4 µM; in assay [8], 17.1 µM; in assay [9], 6.39 µM; in [10] it was above 32.4 µM.

For the molecule `CCCC(=O)Nc1cc(/C=C/C(=O)N2CC(CCl)c3c2cc(OC(C)=O)c2[nH]cc(C)c32)n(C)c1` (stereo not drawn), the TGI in [1] was below 2.5e-05 µM; in assay [2], 0.00193 µM; in assay [4] it was above 0.25 µM; in assay [5], 0.00227 µM; in [6], above 0.25 µM; in assay [8], above 0.0759 µM. The same molecule had a TGI in assay [10] of 0.000311 µM.

With `Cc1ccc([N+](=O)[O-])cc1S(=O)(=O)Nc1ccc(C2=NN(C(=O)c3ccccc3)C(c3ccccc3O)C2)cc1` (stereo not drawn), the TGI in assay [1] is 31.9 µM; in assay [2], above 100 µM; in assay [3], 29 µM; in assay [4], 37.7 µM; in assay [5], 30.7 µM; in assay [6], above 100 µM. Moreover, the TGI is 74.4 µM in assay [7], 26.7 µM in assay [8], 76.6 µM in [9] and above 100 µM in [10].

As for `O=S(C(c1ccccc1)=P(c1ccccc1)(c1ccccc1)c1ccccc1)c1ccc(Cl)cc1` (stereo not drawn), the TGI was 95.1 µM in [1]; 55.3 µM in assay [2]; 68.4 µM in assay [3]; 70 µM in assay [4]; above 100 µM in [6]; above 100 µM in assay [8]. Moreover, the TGI in [9] and in assay [10] was above 100 µM in each case.

Take `CCCCSCCC(N)P(=O)(O)O` (stereo not drawn): the TGI in assay [2], in assay [3], in [4], in [6], in assay [7] and in assay [8] was above 100 µM in each case. For the same molecule, the TGI in assay [9] and in [10] was above 100 µM in each case.

`COc1cc(S(=O)(=O)Nc2ccc(-c3csc(/N=C\c4cccc(Oc5ccccc5)c4)n3)cc2)ccc1Cl`: the TGI is 49.4 µM in assay [1]; above 100 µM in assay [2]; above 100 µM in assay [3]; 93.1 µM in assay [5]; above 100 µM in [6]; above 100 µM in [7]. The results for the TGI in assay [8], in [9] and in assay [10] were 21.1 µM, above 100 µM and above 100 µM, respectively.

On to `CC(C)C(=O)CC(c1ccc(Br)cc1)N1N=C(C(C)C)CC1c1ccc(Br)cc1` (stereo not drawn), for which the TGI in [1], in assay [6], in [7] and in assay [9] was above 100 µM in each case.

Regarding `O=C1CNc2cc(N3CCCCC3)ccc2N1`, the TGI in assay [2], in assay [3], in assay [5], in [6], in [7] and in assay [8] was above 100 µM each time. Besides, the TGI in assay [9] and in assay [10] was above 100 µM in each case.

In the case of `CN(CCCNC(=O)c1nn(-c2ccccc2)c2c1Cc1ccccc1-2)CCCNC(=O)c1nn(-c2ccccc2)c2c1Cc1ccccc1-2`, the TGI in assay [3] worked out at 3.09 µM; in assay [4], 2.99 µM; in assay [5], 3.21 µM; in [6], 2.63 µM; in assay [7], 3.58 µM; in [8], 2.99 µM. For the same molecule, the TGI in [9] turned out to be 3.29 µM.

Regarding `CS(=O)(=O)Nc1cccc(-c2ccc3ncnc(Nc4cncc(Cl)c4)c3c2)c1`, the GI50 in assay [1] is 1.43 µM; in assay [2], 1.35 µM; in assay [5] it was 2.34 µM; in [7], 2.5 µM. Besides, the TGI was 4.41 µM in [1], 6.41 µM in assay [2], 7.39 µM in assay [5] and above 100 µM in assay [7].

These data come from PubChem BioAssay (NCI).
